SMILES strings stand for the structures.

Cav3.2, sequence (O95180 whole entry, looked up): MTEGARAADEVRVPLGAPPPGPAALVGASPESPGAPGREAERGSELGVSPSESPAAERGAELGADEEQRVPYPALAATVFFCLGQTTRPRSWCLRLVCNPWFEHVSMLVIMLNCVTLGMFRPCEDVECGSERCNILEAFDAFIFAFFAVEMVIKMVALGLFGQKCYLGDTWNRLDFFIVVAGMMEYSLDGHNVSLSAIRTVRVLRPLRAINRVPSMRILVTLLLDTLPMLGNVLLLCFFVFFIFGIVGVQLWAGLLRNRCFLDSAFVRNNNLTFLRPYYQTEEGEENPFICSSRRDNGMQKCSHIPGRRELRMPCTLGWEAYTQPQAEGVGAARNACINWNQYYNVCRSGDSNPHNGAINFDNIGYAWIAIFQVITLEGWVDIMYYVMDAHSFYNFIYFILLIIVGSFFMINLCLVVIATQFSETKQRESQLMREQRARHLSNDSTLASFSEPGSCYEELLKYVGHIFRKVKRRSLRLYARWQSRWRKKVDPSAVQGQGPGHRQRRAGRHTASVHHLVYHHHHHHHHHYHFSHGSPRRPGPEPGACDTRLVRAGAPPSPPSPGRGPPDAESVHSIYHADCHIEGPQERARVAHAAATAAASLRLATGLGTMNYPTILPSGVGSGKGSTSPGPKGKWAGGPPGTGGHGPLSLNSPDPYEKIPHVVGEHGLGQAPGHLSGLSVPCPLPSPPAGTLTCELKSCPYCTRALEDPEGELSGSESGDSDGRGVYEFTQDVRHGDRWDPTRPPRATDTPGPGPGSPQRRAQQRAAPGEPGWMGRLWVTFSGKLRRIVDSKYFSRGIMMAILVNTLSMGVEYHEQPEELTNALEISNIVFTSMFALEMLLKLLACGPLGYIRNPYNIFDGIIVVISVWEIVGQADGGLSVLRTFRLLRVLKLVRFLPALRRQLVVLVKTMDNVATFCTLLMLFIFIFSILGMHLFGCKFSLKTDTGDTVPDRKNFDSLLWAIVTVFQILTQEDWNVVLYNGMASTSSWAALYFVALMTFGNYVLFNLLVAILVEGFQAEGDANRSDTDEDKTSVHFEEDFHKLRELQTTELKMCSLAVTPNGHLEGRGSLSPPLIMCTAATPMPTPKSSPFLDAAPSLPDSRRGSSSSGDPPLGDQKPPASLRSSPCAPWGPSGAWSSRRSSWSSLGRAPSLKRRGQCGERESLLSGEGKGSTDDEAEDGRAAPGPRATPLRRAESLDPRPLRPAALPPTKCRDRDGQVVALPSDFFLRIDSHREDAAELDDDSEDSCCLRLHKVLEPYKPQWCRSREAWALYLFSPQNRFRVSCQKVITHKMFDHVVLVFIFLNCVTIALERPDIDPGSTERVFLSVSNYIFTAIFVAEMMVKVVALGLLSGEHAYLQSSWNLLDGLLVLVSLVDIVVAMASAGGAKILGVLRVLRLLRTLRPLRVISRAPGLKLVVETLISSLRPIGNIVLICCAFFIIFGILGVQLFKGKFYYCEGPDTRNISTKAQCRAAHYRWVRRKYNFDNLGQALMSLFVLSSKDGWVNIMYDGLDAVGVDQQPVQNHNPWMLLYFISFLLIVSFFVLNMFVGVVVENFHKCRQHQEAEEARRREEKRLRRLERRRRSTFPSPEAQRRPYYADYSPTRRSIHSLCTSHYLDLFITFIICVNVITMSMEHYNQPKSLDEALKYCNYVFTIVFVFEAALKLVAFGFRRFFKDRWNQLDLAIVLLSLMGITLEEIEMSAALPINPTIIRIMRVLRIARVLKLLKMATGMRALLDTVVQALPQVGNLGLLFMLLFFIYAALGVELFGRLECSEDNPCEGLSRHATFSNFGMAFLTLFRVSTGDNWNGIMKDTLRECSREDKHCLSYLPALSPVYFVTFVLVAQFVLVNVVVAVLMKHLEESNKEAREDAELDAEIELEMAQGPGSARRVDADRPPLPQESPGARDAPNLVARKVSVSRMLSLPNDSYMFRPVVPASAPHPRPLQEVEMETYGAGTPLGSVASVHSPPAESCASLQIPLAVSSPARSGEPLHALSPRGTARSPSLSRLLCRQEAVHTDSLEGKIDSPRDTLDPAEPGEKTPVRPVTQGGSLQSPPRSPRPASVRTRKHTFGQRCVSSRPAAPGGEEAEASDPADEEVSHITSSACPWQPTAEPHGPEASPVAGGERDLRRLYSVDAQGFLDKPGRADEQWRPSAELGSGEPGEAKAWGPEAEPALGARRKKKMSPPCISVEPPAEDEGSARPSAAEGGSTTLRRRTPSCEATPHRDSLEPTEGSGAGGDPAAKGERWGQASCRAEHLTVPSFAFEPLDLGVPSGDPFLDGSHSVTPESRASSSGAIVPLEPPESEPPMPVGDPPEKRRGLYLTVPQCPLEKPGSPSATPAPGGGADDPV

In this assay the target is Cav3.2 (Homo sapiens, UniProt O95180). The assay is described as follows: Calcium flux FLIPR assay, HEK293 cells recombinantly expressing Cav3.2. It counts as cell-based. The conditions noted are these: Cav3.2-channel, Ca2+ entry stimulated by 10 mM CaCl2. In a few lines:
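Fluo-4-loaded HEK293 cells stably expressing Cav3.2, seeded overnight at 37 °C; compounds diluted in TEAC buffer (pH 7.2) and preincubated 3 min before Ca2+ entry triggered with CaCl2 at 10 mM final. Area under FLIPR fluorescence trace fitted sigmoidally; IC50 relative to vehicle signal.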
(In general: A change in cytosolic calcium serves as a functional read-out for many receptors and channels.)
By IC50 is commonly meant the midpoint of a concentration-inhibition curve. In the case of `COc1ccc(Cn2ncc(NC(=O)Cc3ccc(OC4CC(F)(F)C4)cc3)n2)cc1C#N` [Example 223, N-[2-(3-Cyano-4-methoxy-benzyl)-2H-[1,2,3]triazol-4-yl]-2-[4-(3,3-difluoro-cyclobutoxy)-phenyl]-acetamide], the IC50 is 120 nM.
For `N#Cc1ccc(Cn2ncc(NC(=O)Cc3ccc(OCC4CC(F)(F)C4)cc3)n2)cc1` [Example 238, N-[2-(4-Cyano-benzyl)-2H-[1,2,3]triazol-4-yl]-2-[4-(3,3-difluoro-cyclobutylmethoxy)-phenyl]-acetamide], the IC50 is 24 nM.
`Cc1cc2cc(CC(=O)Nc3cnn(Cc4ccc(F)c(F)c4)n3)ccc2[nH]1` [Example 31, N-[2-(3,4-Difluoro-benzyl)-2H-[1,2,3]triazol-4-yl]-2-(2-methyl-1H-indol-5-yl)-acetamide]: the IC50 stood at 11 nM.
Take `COc1cc(Cn2ncc(NC(=O)Cc3ccc(N4CCC(F)(F)C4)nc3)n2)cc(F)c1F` [Example 219, N-[2-(3,4-Difluoro-5-methoxy-benzyl)-2H-[1,2,3]triazol-4-yl]-2-[6-(3,3-difluoro-pyrrolidin-1-yl)-pyridin-3-yl]-acetamide]: the concentration for half-maximal inhibition (IC50) is 120 nM.
With `Cc1cc(Cn2ncc(NC(=O)Cc3ccc4c(c3)c(C)cn4C)n2)ccc1C#N` [Example 171, N-[2-(4-Cyano-3-methyl-benzyl)-2H-[1,2,3]triazol-4-yl]-2-(1,3-dimethyl-1H-indol-5-yl)-acetamide], the IC50 amounted to 22 nM.
To `Cc1cn(C)c2cc(CC(=O)Nc3cnn(Cc4ccc(C#N)c(F)c4)n3)ccc12` [Example 105, N-[2-(4-Cyano-3-fluoro-benzyl)-2H-[1,2,3]triazol-4-yl]-2-(1,3-dimethyl-1H-indol-6-yl)-acetamide] belongs 20 nM; to `CN(CC1CC1)c1ccc(CC(=O)Nc2cnn(Cc3ccc(F)c(F)c3)n2)cn1` [Example 12, 2-[6-(Cyclopropylmethyl-methyl-amino)-pyridin-3-yl]-N-[2-(3,4-difluoro-benzyl)-2H-[1,2,3]triazol-4-yl]-acetamide], 31 nM.
For the compound `Cc1ccc(Cn2ncc(NC(=O)Cc3ccc4cnn(C)c4c3)n2)cc1C#N` [Example 215, N-[2-(3-Cyano-4-methyl-benzyl)-2H-[1,2,3]triazol-4-yl]-2-(1-methyl-1H-indazol-6-yl)-acetamide], the IC50 came out at 650 nM.
`O=C(Cc1ccc2[nH]nc(C(F)(F)F)c2c1)Nc1cnn(Cc2ccc(F)c(F)c2)n1` [Example 39, N-[2-(3,4-Difluoro-benzyl)-2H-[1,2,3]triazol-4-yl]-2-(3-trifluoromethyl-1H-indazol-5-yl)-acetamide]: the half-inhibitory concentration (IC50) is 280 nM.
In the case of `Cc1cn(C)c2ccc(CC(=O)Nc3cnn(Cc4ccc(C#N)c(F)c4)n3)cc12` [Example 140, N-[2-(4-Cyano-3-fluoro-benzyl)-2H-[1,2,3]triazol-4-yl]-2-(1,3-dimethyl-1H-indol-5-yl)-acetamide], the concentration for half-maximal inhibition (IC50) stood at 14 nM.
To `COc1ccc(Cn2ncc(NC(=O)Cc3ccc(C(C)(C)C)cc3)n2)cc1` [Example 61, 2-(4-tert-Butyl-phenyl)-N-[2-(4-methoxy-benzyl)-2H-[1,2,3]triazol-4-yl]-acetamide] belongs 44 nM; to `COc1cc(Cn2ncc(NC(=O)Cc3ccc(OCC4COC4)cc3)n2)ccc1F` [Example 108, N-[2-(4-Fluoro-3-methoxy-benzyl)-2H-[1,2,3]triazol-4-yl]-2-[4-(oxetan-3-ylmethoxy)-phenyl]-acetamide], 300 nM; to `Cc1cn(C)c2cc(CC(=O)Nc3cnn(Cc4ccc(C#N)cc4)n3)ccc12` [Example 106, N-[2-(4-Cyano-benzyl)-2H-[1,2,3]triazol-4-yl]-2-(1,3-dimethyl-1H-indol-6-yl)-acetamide], 36 nM.
To `Cn1ncc2ccc(CC(=O)Nc3cnn(Cc4ccc(OC(F)(F)F)c(F)c4)n3)cc21` [Example 185, N-[2-(3-Fluoro-4-trifluoromethoxy-benzyl)-2H-[1,2,3]triazol-4-yl]-2-(1-methyl-1H-indazol-6-yl)-acetamide] belongs 17 nM; to `Cc1ccc(Cn2ncc(NC(=O)Cc3ccc(C4(C(F)(F)F)CC4)cc3)n2)cc1C#N` [Example 226, N-[2-(3-Cyano-4-methyl-benzyl)-2H-[1,2,3]triazol-4-yl]-2-[4-(1-trifluoromethyl-cyclopropyl)-phenyl]-acetamide], 250 nM; to `CC(C)c1ccc(CC(=O)Nc2cnn(Cc3ccc(F)cc3)n2)cc1` [Example 1, N-[2-(4-Fluoro-benzyl)-2H-[1,2,3]triazol4-yl]-2-(4-isopropyl-phenyl)-acetamide], 21 nM.
To `N#Cc1ccc(Cn2ncc(NC(=O)Cc3ccc(N4CCC(F)(F)C4)nc3)n2)cc1` [Example 97, N-[2-(4-Cyano-benzyl)-2H-[1,2,3]triazol-4-yl]-2-[6-(3,3-difluoro-pyrrolidin-1-yl)-pyridin-3-yl]-acetamide] belongs 36 nM; to `CC1(c2ccc(CC(=O)Nc3cnn(Cc4ccc(F)cc4)n3)cc2)COC1` [Example 53, N-[2-(4-Fluoro-benzyl)-2H-[1,2,3]triazol-4-yl]-2-[4-(3-methyl-oxetan-3-yl)-phenyl]-acetamide], 35 nM.
Turning to `COc1cc(Cn2ncc(NC(=O)Cc3ccc(N4CCC(F)(F)C4)nc3)n2)ccc1F` [Example 115, 2-[6-(3,3-Difluoro-pyrrolidin-1-yl)-pyridin-3-yl]-N-[2-(4-fluoro-3-methoxy-benzyl)-2H-[1,2,3]triazol-4-yl]-acetamide], the IC50 came to 45 nM.
To `CN(c1ccc(CC(=O)Nc2cnn(Cc3ccc(F)c(F)c3)n2)cn1)C1CC1` [Example 11] belongs 32 nM; to `CC(C)(C)c1ccc(CC(=O)Nc2cnn(Cc3ccc(F)cc3)n2)cc1` [Example 54, 2-(4-tert-Butyl-phenyl)-N-[2-(4-fluoro-benzyl)-2H-[1,2,3]triazol-4-yl]-acetamide], 26 nM.
On to `COc1ccc(Cn2ncc(NC(=O)Cc3ccc(OCC4COC4)cc3)n2)cc1F` [Example 120, N-[2-(3-Fluoro-4-methoxy-benzyl)-2H-[1,2,3]triazol-4-yl]-2-[4-(oxetan-3-ylmethoxy)-phenyl]-acetamide], for which the 50% inhibitory concentration (IC50) was determined as 550 nM.
To `CC(C)(C)c1ccc(CC(=O)Nc2cnn(Cc3ccc(OC(F)F)cc3)n2)cc1` [Example 88, 2-(4-tert-Butyl-phenyl)-N-[2-(4-difluoromethoxy-benzyl)-2H-[1,2,3]triazol-4-yl]-acetamide] belongs 56 nM; to `COc1c(F)cc(Cn2ncc(NC(=O)Cc3ccc(C(C)(C)C)cc3)n2)cc1F` [Example 79, 2-(4-tert-Butyl-phenyl)-N-[2-(3,5-difluoro-4-methoxy-benzyl)-2H-[1,2,3]triazol-4-yl]-acetamide], 46 nM.
To `COc1ccc(Cn2ncc(NC(=O)Cc3ccc(N4CCC(F)(F)C4)nc3)n2)cc1F` [Example 126, 2-[6-(3,3-Difluoro-pyrrolidin-1-yl)-pyridin-3-yl]-N-[2-(3-fluoro-4-methoxy-benzyl)-2H-[1,2,3]triazol-4-yl]-acetamide] belongs 47 nM; to `O=C(Cc1ccc(N2CCCC2)nc1)Nc1cnn(Cc2ccc(F)cc2)n1` [Example 55, N-[2-(4-Fluoro-benzyl)-2H-[1,2,3]triazol-4-yl]-2-(6-pyrrolidin-1-yl-pyridin-3-yl)-acetamide], 50 nM.

Values taken from US10246426B2, “Triazole compounds as T-type calcium channel blockers” (IDORSIA PHARMACEUTICALS LTD, priority 2014, dated 2019).
